Experiment [1] addresses T1, PAK4 kinase activity in whole cells (TR-293-KDG, modified HEK 293) (Homo sapiens, UniProt O96013).
T1 construct: engineered to overexpress both GEF-H1b and the kinase domain (KD) of PAK4; expressed in transfected cells; host or cells: TR-293-KDG (modified HEK 293, Trex system, Invitrogen)
Briefly: PAK4 cellular assay: sandwich ELISA of PAK4-dependent phosphorylation of GEF-H1b in TR-293-KDG cells. It is filed as cell-based. The following applies: 3-hour exposure.
Description: A sandwich ELISA method was used to measure the PAK4 kinase activity in whole cells. The level of PAK4-dependent phosphorylation of GEF-H1b can be determined by monitoring the binding of a phosphospecific antibody to GEF-H1b. […] The KD of PAK4 is inducible in this cell line by tetracycline (Trex system, Invitrogen). […] To establish a phosphorylation event on GEF-HL, cells are induced with doxycycline to express the PAK4 KD. […] Candidate substance effect is measured as the ability to block this phosphorylation event.
ELISA plate was prepared by pre-coating the plates with a capture antibody (α-HA-tag mouse monoclonal antibody), blocked with BSA, and washed in 0.1% tween 20 in tris-buffered saline (TBST). […] Cells were then lysed with a modified RIPA buffer supplemented with protease inhibitors. […] Between all subsequent steps plates were washed 4 times with TBST. Detection antibody (recognizing the phospho-specific eptitope on GEF-H1b) was added for 1 hour, followed by addition of an enzyme linked goat α-rabbit secondary antibody for 45 minutes. […] EC50 values were calculated by sigmoid curve fitting using a four-parameter analysis.

Experiment [2] has as its target T2, PAK4 Kinase domain (PAK4 KD) (Homo sapiens, UniProt O96013).
T2 construct: Cloning, expression, and purification of recombinant PAK4 Kinase domain (PAK4 KD); His tag (pET28a(+)/pET24a(+), Ni-NTA purification) (N, cleaved yes); GST (pGST4.5, glutathione column) (N, cleaved yes); made in house; host or cells: E. coli BL21(DE3)
The experiment can be described thus: PAK4 kinase domain enzymatic assay (PK/LDH-coupled, Ki). It is filed as biochemical. The note with it: PAK4 Kinase Domain.

T1 sequence (O96013 321-572 limits assumed): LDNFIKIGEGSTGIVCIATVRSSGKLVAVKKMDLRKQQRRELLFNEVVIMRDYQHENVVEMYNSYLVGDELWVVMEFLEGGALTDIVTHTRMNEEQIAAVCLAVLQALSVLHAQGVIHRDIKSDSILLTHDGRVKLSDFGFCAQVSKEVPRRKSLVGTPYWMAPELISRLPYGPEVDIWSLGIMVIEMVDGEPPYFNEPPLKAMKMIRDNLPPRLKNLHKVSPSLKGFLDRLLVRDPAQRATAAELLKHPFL
T2 sequence (O96013 321-572 limits assumed): as above

For `COC(C)(C)C(=O)Nc1n[nH]c2c1CN(C(=O)O[C@H](CN(C)C)c1ccccc1)C2(C)C` [Example 116, (S)-2-(dimethylamino)-1-phenylethyl 3-(2-methoxy-2-methylpropanamido)-6,6-dimethylpyrrolo[3,4-c]pyrazole-5(1H,4H, 6H)-carboxylate], the response in experiment [1] was half-maximal at 50 nM (EC50). Further, the Ki in experiment [2] came to 212 nM.

Take `CN(C)C[C@@H](OC(=O)N1Cc2c(NC(=O)[C@@H]3C[C@H]3c3ccccc3)n[nH]c2C1(C)C)c1ccccc1` [Example 20, (1S)-2-(dimethylamino)-1-phenylethyl 6,6-dimethyl-3-({[trans-2-phenylcyclopropyl]carbonyl}amino)-4,6-dihydropyrrolo[3,4-c]pyrazole-5(1H)-carboxylate]: the EC50 in experiment [1] came to 80.2 nM. Also, the Ki in experiment [2] turned out to be 8.13 nM.

Regarding `CN(C)CC(CC(=O)N1Cc2c(NC(=O)c3cccs3)n[nH]c2C1(C)C)c1ccc(Cl)cc1` (centres unmarked) [Example 97, N-{5-[3-(4-chlorophenyl)-4-(dimethylamino)butanoyl]-6,6-dimethyl-1,4,5,6-tetrahydropyrrolo[3,4-c]pyrazol-3-yl}thiophene-2-carboxamide], a half-maximal response in experiment [1] (EC50) required 1510 nM. Also, the Ki in experiment [2] was found to be 110 nM.

On to `CN(C)C[C@@H](OC(=O)N1Cc2c(NC(=O)c3cn(C)cn3)n[nH]c2C1(C)C)c1ccccc1` [Example 69, (1S)-2-(dimethylamino)-1-phenylethyl 6,6-dimethyl-3-{[(1-methyl-1H-imidazol-4-yl)carbonyl]amino}-4,6-dihydropyrrolo[3,4-c]pyrazole-5(1H)-carboxylate], for which the EC50 in experiment [1] came to 226 nM. This compound also yielded a Ki in experiment [2] of 149 nM.

Compound `CN(C)C[C@@H](NC(=O)N1Cc2c(NC(=O)c3ccccc3F)n[nH]c2C1(C)C)c1ccccc1` [Example 48, N-[(1S)-2-(dimethylamino)-1-phenylethyl]-3-[(2-fluorobenzoyl)amino]-6,6-dimethyl-4,6-dihydropyrrolo[3,4-c]pyrazole-5(1H)-carboxamide] had an EC50 in experiment [1] of 36.4 nM. Moreover, affinity in experiment [2] was put at a Ki of 98.3 nM.

Consider `CN(C)C[C@@H](OC(=O)N1Cc2c(NC(=O)C3CCCCO3)n[nH]c2C1(C)C)c1ccccc1` (stereo partly drawn) [Example 16, (1S)-2-(dimethylamino)-1-phenylethyl 6,6-dimethyl-3-[(tetrahydro-2H-pyran-2-ylcarbonyl)amino]-4,6-dihydropyrrolo[3,4-c]pyrazole-5(1H)-carboxylate], for which the EC50 in experiment [1] amounted to 17.9 nM. This compound also returned a Ki in experiment [2] of 118 nM.

In the case of `CN(C)C[C@@H](OC(=O)N1Cc2c(NC(=O)c3ccc(F)cc3)n[nH]c2C1(C)C)c1ccccn1` [Example 25, (1R)-2-(dimethylamino)-1-pyridin-2-ylethyl 3-[(4-fluorobenzoyl)amino]-6,6-dimethyl-4,6-dihydropyrrolo[3,4-c]pyrazole-5(1H)-carboxylate], the EC50 in experiment [1] turned out to be 153 nM. The same compound yielded a Ki in experiment [2] of 78.6 nM.

`CC1(C)c2[nH]nc(NC(=O)c3cc4ccccc4s3)c2CN1C(=O)N[C@H](CO)c1ccccc1` [Example 99, 3-[(1-benzothien-2-ylcarbonyl)amino]-N-[(1S)-2-hydroxy-1-phenylethyl]-6,6-dimethyl-4,6-dihydropyrrolo[3,4-c]pyrazole-5(1H)-carboxamide]: the EC50 in experiment [1] came to 423 nM. In addition, the Ki in experiment [2] was found to be 67.9 nM.

In experiment [1], `CN(C)C[C@@H](OC(=O)N1Cc2c(NC(=O)c3ccc(F)cc3)n[nH]c2C1(C)C)C1CCCCC1` [Example 75, (1S)-1-cyclohexyl-2-(dimethylamino)ethyl 3-[(4-fluorobenzoyl)amino]-6,6-dimethyl-4,6-dihydropyrrolo[3,4-c]pyrazole-5(1H)-carboxylate] yielded an EC50 of 115 nM. Further, the affinity in experiment [2] corresponds to a Ki of 73.1 nM.

Take `CC(=O)Nc1n[nH]c2c1CN(C(=O)N[C@H](CN(C)C)c1ccccc1)C2(C)C` [Example 52, 3-(acetylamino)-N-[(1S)-2-(dimethylamino)-1-phenylethyl]-6,6-dimethyl-4,6-dihydropyrrolo[3,4-c]pyrazole-5(1H)-carboxamide]: a half-maximal effect in experiment [1] (EC50) was put at 242 nM. The Ki in experiment [2] is 354 nM.
